# Key:
# [1] = system: broad-leaf and grass weed species; experiment: Field testing of pre-emergence application of dicamba and acetochlor in Argentina and/or South Africa (Example 10); conditions: for percent control Y (DIACAMBA OR ATRAZINE ALONE): early rating (14 day); for Y (dicamba alone): late rating (28 day);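 on all read-outs here: percent weed control in field trials, rated at 14 days (early) and 28 days (late) after treatment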
# [2] = system: velvetleaf; experiment: Post-emergence application in velvetleaf under greenhouse conditions (Example 8); type: in vivo
# From the text: (§1) The following testing protocol was employed to evaluate the post-emergence application of herbicides and herbicide combinations as described in the following examples unless otherwise specified. The weed species to be treated were planted in 3.5 inch pots containing redi-earth potting mix and grown under greenhouse conditions. When the weed species reached a height of about four inches, herbicide was applied at the specified application rate using a track sprayer with a flat even nozzle type, 9501E nozzle size, and spray pressure of 165 kPa. After the application of the herbicide(s), the pots were only sub-irrigated as needed. Throughout the test period, temperature was maintained from about 20° C. to about 30° C. and relative humidity was maintained at about 30%. The plants were rated visually and percentage of weed control was determined for each treatment at 15 to 21 days after herbicide application.
# Post-emergence application of several herbicides and herbicide combinations was evaluated in velvetleaf under greenhouse conditions. The plants were rated visually and percentage of weed control was determined at 24 days after herbicide application. The herbicides and herbicide combinations evaluated are listed in Table 8-A below together with the corresponding percent control data. The data represent an average value (n=6).
# The results of the analysis are reported below in Table 8-B (glyphosate+dicamba), Table 8-C(glyphosate+metribuzin), and Table 8-D (dicamba+metribuzin).
# [3] = system: Palmer amaranth; experiment: Post-emergence application in Palmer amaranth under greenhouse conditions (Example 7); type: in vivo; conditions: 24 days after application
# From the text: as §1
# Post-emergence application of several herbicides and herbicide combinations was evaluated in Palmer amaranth under greenhouse conditions. The plants were rated visually and percentage of weed control was determined at 24 days after herbicide application. The herbicides and herbicide combinations evaluated are listed in Table 7-A below together with the corresponding percent control data. The data represent an average value (n=6).
# The results of the analysis are reported below in Table 7-B (glyphosate+dicamba), Table 7-C(glyphosate+metribuzin), and Table 7-D (dicamba+metribuzin).
smiles,measurement,setting,value
"COc1c(Cl)ccc(Cl)c1C(=O)O [Dicamba, 3,6-dichloro-2-methoxy benzoic acid]",percent control Y (DIACAMBA OR ATRAZINE ALONE),"[1]; AMADE, 560 g/ha",99.3%
same,Y (dicamba alone),"[1]; AMADE, 560 g/ha",83.1%
same,percent control Y (DIACAMBA OR ATRAZINE ALONE),"[1]; AMAQU, 280 g/ha",52.9%
same,Y (dicamba alone),"[1]; AMAQU, 280 g/ha",40.6%
same,percent control Y (DIACAMBA OR ATRAZINE ALONE),"[1]; AMAQU, 560 g/ha",61.4%
same,Y (dicamba alone),"[1]; AMAQU, 560 g/ha",54.3%
same,percent control Y (DIACAMBA OR ATRAZINE ALONE),"[1]; ANOCR, 280 g/ha",53.0%
same,Y (dicamba alone),"[1]; ANOCR, 280 g/ha",40.5%
same,percent control Y (DIACAMBA OR ATRAZINE ALONE),"[1]; ANOCR, 560 g/ha",66.1%
same,Y (dicamba alone),"[1]; ANOCR, 560 g/ha",54.5%
same,percent control Y (DIACAMBA OR ATRAZINE ALONE),"[1]; BIDPI, 280 g/ha",2.3%
same,Y (dicamba alone),"[1]; BIDPI, 280 g/ha",5.0%
same,percent control Y (DIACAMBA OR ATRAZINE ALONE),"[1]; BIDPI, 560 g/ha",74.5%
same,Y (dicamba alone),"[1]; BIDPI, 560 g/ha",72.5%
same,Y (dicamba alone),"[1]; BRAER, 560 g/ha",67.5%
same,percent control Y (DIACAMBA OR ATRAZINE ALONE),"[1]; CHEAL, 280 g/ha",56.7%
same,Y (dicamba alone),"[1]; CHEAL, 280 g/ha",38.2%
same,percent control Y (DIACAMBA OR ATRAZINE ALONE),"[1]; CHEAL, 560 g/ha",96.7%
same,Y (dicamba alone),"[1]; CHEAL, 560 g/ha",86.7%
same,Y (dicamba alone),"[1]; CHRGA, 280 g/ha",6.2%
same,percent control Y (DIACAMBA OR ATRAZINE ALONE),"[1]; CHRGA, 560 g/ha",98.0%
same,Y (dicamba alone),"[1]; CHRGA, 560 g/ha",100.0%
same,percent control Y (DIACAMBA OR ATRAZINE ALONE),"[1]; COMBE, 280 g/ha",2.7%
same,Y (dicamba alone),"[1]; COMBE, 280 g/ha",10.0%
same,percent control Y (DIACAMBA OR ATRAZINE ALONE),"[1]; COMBE, 560 g/ha",75.0%
same,Y (dicamba alone),"[1]; COMBE, 560 g/ha",76.3%
same,percent control Y (DIACAMBA OR ATRAZINE ALONE),"[1]; CONFA, 280 g/ha",1.3%
same,Y (dicamba alone),"[1]; CONFA, 280 g/ha",6.2%
same,percent control Y (DIACAMBA OR ATRAZINE ALONE),"[1]; CONFA, 560 g/ha",17.5%
same,Y (dicamba alone),"[1]; CONFA, 560 g/ha",55.0%
same,percent control Y (DIACAMBA OR ATRAZINE ALONE),"[1]; CYNDA, 280 g/ha",28.8%
same,percent control Y (DIACAMBA OR ATRAZINE ALONE),"[1]; CYNDA, 560 g/ha",47.7%
same,percent control Y (DIACAMBA OR ATRAZINE ALONE),"[1]; CYPES, 280 g/ha",1.0%
same,Y (dicamba alone),"[1]; CYPES, 280 g/ha",5.0%
same,percent control Y (DIACAMBA OR ATRAZINE ALONE),"[1]; CYPES, 560 g/ha",65.0%
same,Y (dicamba alone),"[1]; CYPES, 560 g/ha",63.3%
same,percent control Y (DIACAMBA OR ATRAZINE ALONE),"[1]; CYPRO, 280 g/ha",42.3%
same,Y (dicamba alone),"[1]; CYPRO, 280 g/ha",0.8%
same,percent control Y (DIACAMBA OR ATRAZINE ALONE),"[1]; CYPRO, 560 g/ha",44.4%
same,Y (dicamba alone),"[1]; CYPRO, 560 g/ha",15.4%
same,percent control Y (DIACAMBA OR ATRAZINE ALONE),"[1]; DATFE, 280 g/ha",18.5%
same,Y (dicamba alone),"[1]; DATFE, 280 g/ha",16.7%
same,percent control Y (DIACAMBA OR ATRAZINE ALONE),"[1]; DATFE, 560 g/ha",59.6%
same,Y (dicamba alone),"[1]; DATFE, 560 g/ha",58.5%
same,percent control Y (DIACAMBA OR ATRAZINE ALONE),"[1]; DIGER, 280 g/ha",2.5%
same,Y (dicamba alone),"[1]; DIGER, 280 g/ha",10.0%
same,percent control Y (DIACAMBA OR ATRAZINE ALONE),"[1]; DIGER, 560 g/ha",98.0%
same,Y (dicamba alone),"[1]; DIGER, 560 g/ha",100.0%
same,percent control Y (DIACAMBA OR ATRAZINE ALONE),"[1]; DIGSA, 280 g/ha",32.7%
same,Y (dicamba alone),"[1]; DIGSA, 280 g/ha",23.8%
same,percent control Y (DIACAMBA OR ATRAZINE ALONE),"[1]; DIGSA, 560 g/ha",45.6%
same,Y (dicamba alone),"[1]; DIGSA, 560 g/ha",32.7%
same,Y (dicamba alone),"[1]; DTTAE, 280 g/ha",6.2%
same,Y (dicamba alone),"[1]; DTTAE, 560 g/ha",100.0%
same,percent control Y (DIACAMBA OR ATRAZINE ALONE),"[1]; ELEAF, 280 g/ha",100.0%
same,Y (dicamba alone),"[1]; ELEAF, 280 g/ha",8.0%
same,percent control Y (DIACAMBA OR ATRAZINE ALONE),"[1]; ELEAF, 560 g/ha",100.0%
same,Y (dicamba alone),"[1]; ELEAF, 560 g/ha",97.5%
same,percent control Y (DIACAMBA OR ATRAZINE ALONE),"[1]; HIBCA, 280 g/ha",1.8%
same,Y (dicamba alone),"[1]; HIBCA, 280 g/ha",11.3%
same,percent control Y (DIACAMBA OR ATRAZINE ALONE),"[1]; HIBCA, 560 g/ha",42.5%
same,Y (dicamba alone),"[1]; HIBCA, 560 g/ha",55.0%
same,Y (dicamba alone),"[1]; IPOBA, 280 g/ha",8.8%
same,Y (dicamba alone),"[1]; IPOBA, 560 g/ha",0.0%
same,percent control Y (DIACAMBA OR ATRAZINE ALONE),"[1]; IPOPD, 280 g/ha",2.6%
same,Y (dicamba alone),"[1]; IPOPD, 280 g/ha",10.0%
same,percent control Y (DIACAMBA OR ATRAZINE ALONE),"[1]; IPOPD, 560 g/ha",21.3%
same,Y (dicamba alone),"[1]; IPOPD, 560 g/ha",45.0%
same,percent control Y (DIACAMBA OR ATRAZINE ALONE),"[1]; OVERALL, 280 g/ha",36.2%
same,percent control Y (DIACAMBA OR ATRAZINE ALONE),"[1]; OVERALL, 560 g/ha",57.4%
same,Y (dicamba alone),"[1]; Overall, 280 g/ha",29.8%
same,Y (dicamba alone),"[1]; Overall, 560 g/ha",51.7%
same,percent control Y (DIACAMBA OR ATRAZINE ALONE),"[1]; PERCENT WEED FREE, 280 g/ha",64.5%
same,percent control Y (DIACAMBA OR ATRAZINE ALONE),"[1]; PERCENT WEED FREE, 560 g/ha",74.2%
same,percent control Y (DIACAMBA OR ATRAZINE ALONE),"[1]; POROL, 280 g/ha",35.8%
same,Y (dicamba alone),"[1]; POROL, 280 g/ha",27.8%
same,percent control Y (DIACAMBA OR ATRAZINE ALONE),"[1]; POROL, 560 g/ha",49.2%
same,Y (dicamba alone),"[1]; POROL, 560 g/ha",45.0%
same,Y (dicamba alone),"[1]; Percent Weed Free, 280 g/ha",43.4%
same,Y (dicamba alone),"[1]; Percent Weed Free, 560 g/ha",54.3%
same,percent control Y (DIACAMBA OR ATRAZINE ALONE),"[1]; RCHBR, 280 g/ha",2.4%
same,Y (dicamba alone),"[1]; RCHBR, 280 g/ha",8.5%
same,percent control Y (DIACAMBA OR ATRAZINE ALONE),"[1]; RCHBR, 560 g/ha",89.0%
same,Y (dicamba alone),"[1]; RCHBR, 560 g/ha",88.8%
same,percent control Y (DIACAMBA OR ATRAZINE ALONE),"[1]; TAGMI, 280 g/ha",0.0%
same,Y (dicamba alone),"[1]; TAGMI, 280 g/ha",0.0%
same,percent control Y (DIACAMBA OR ATRAZINE ALONE),"[1]; TAGMI, 560 g/ha",92.5%
same,Y (dicamba alone),"[1]; TAGMI, 560 g/ha",64.3%
same,percent control Y (DIACAMBA OR ATRAZINE ALONE),"[1]; XANST, 280 g/ha",15.3%
same,Y (dicamba alone),"[1]; XANST, 280 g/ha",28.8%
same,percent control Y (DIACAMBA OR ATRAZINE ALONE),"[1]; XANST, 560 g/ha",43.3%
same,Y (dicamba alone),"[1]; XANST, 560 g/ha",32.5%
same,PERCENT CONTROL (ACTUAL),"[2]; 280 g/ha, 24 days after application",82.0%
same,PERCENT CONTROL (ACTUAL),"[2]; 560 g/ha, 24 days after application",95.0%
same,PERCENT CONTROL (ACTUAL),"[2]; Table 8-D, velvetleaf, 24 days, dose 280 g/ha",82.0%
same,PERCENT CONTROL (ACTUAL),"[2]; Table 8-D, velvetleaf, 24 days, dose 560 g/ha",95.0%
same,PERCENT CONTROL,[3]; 280 g/ha,100.0%
same,PERCENT CONTROL,[3]; 560 g/ha,100.0%

# From patent US20150313228A1, “SYNERGISTIC HERBICIDAL COMBINATIONS AND METHODS OF USE” (priority 2012, published 2015)
